Data taken from US12139492B2 (Endotarget Inc., priority 2021, dated 2024).
Where two headings read alike, the source gives them in different places.

Columns and labels:
Assay type in all cases: cell-based
BTK = BTK (Homo sapiens, UniProt Q06187); test: BTK degradation, DC50 and Dmax of Table 1 (cell line not given); set-up: endogenous in cells; conditions: for DC50: concentration giving 50% reduction of BTK expression level
JeKo-1 cells = test: Antiproliferative effect, MTS cell viability assay, JeKo-1 cells; conditions: JeKo-1 mantle cell lymphoma cells, read-out: IC50 (anti-proliferation) JeKO-1 cells
Summary of the method: (§1)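 Absorbance at 490 nm of formazan, formed by metabolically active cells from MTS tetrazolium, served as the viability measure after a 72 h treatment across a 0.001–10 μM concentration series plus untreated control.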

Mino cells = test: Antiproliferative effect, MTS cell viability assay, Mino cells; conditions: Mino mantle cell lymphoma cells, read-out: IC50 (anti-proliferation) Mino cells
Summary of the method: as §1

Chain of BTK (Q06187 whole entry): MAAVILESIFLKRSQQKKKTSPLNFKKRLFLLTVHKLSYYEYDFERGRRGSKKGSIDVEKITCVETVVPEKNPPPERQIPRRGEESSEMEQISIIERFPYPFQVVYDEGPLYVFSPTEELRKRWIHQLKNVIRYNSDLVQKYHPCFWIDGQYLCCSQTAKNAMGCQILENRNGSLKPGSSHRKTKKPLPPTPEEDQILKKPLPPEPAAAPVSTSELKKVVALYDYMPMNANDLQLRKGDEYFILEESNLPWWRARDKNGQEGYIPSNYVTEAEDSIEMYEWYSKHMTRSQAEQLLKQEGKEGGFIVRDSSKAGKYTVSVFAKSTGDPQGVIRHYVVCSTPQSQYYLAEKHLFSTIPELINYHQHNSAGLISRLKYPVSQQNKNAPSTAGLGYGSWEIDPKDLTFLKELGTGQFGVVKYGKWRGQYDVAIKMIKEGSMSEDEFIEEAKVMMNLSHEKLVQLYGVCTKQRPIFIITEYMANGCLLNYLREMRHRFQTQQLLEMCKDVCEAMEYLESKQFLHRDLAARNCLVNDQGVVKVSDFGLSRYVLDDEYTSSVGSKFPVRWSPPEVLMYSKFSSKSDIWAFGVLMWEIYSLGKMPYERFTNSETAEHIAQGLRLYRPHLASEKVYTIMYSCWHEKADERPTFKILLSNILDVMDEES

| Dmax (BTK) [%] | DC50 (BTK) [nM] | Molecule | IC50 (JeKo-1 cells; Homo sapiens) [nM] | IC50 (Mino cells; Homo sapiens, MINO) [nM] | Dmax (BTK degradation) (BTK) | IC50 (JeKo-1 cells) [nM] | IC50 (Mino cells) [nM] |
| --- | --- | --- | --- | --- | --- | --- | --- |
| > 90 | 10 to 50 | Nc1ncnc2c1c(-c1ccc(Oc3ccccc3)cc1)nn2C1CCN(C(=O)N2CCN(CC3CCN(c4ccc5c(c4)C(=O)N(C4CCC(=O)NC4=O)C5=O)CC3)CC2)CC1 (stereo not shown) [Compound 87, 5-(4-((4-(4-(4-amino-3-(4-phenoxyphenyl)-1H-pyrazolo[3,4-d]pyrimidin-1-yl)piperidine-1-carbonyl)piperazin-1-yl)methyl)piperidin-1-yl)-2-(2,6-dioxopiperidin-3-yl)isoindoline-1,3-dione] | < 1000 | 1000 to 10000 | – | – | – |
| > 90 | 10 to 50 | Nc1ncnc2c1c(-c1ccc(Oc3ccccc3)cc1)nn2C1CCN(CCOCCN2CCN(c3ccc4c(c3)CN(C3CCC(=O)NC3=O)C4=O)CC2)CC1 (stereo not shown) [Compound 6, 3-(5-(4-(2-(2-(4-(4-amino-3-(4-phenoxyphenyl)-1H-pyrazolo[3,4-d]pyrimidin-1-yl)piperidin-1-yl)ethoxy)ethyl)piperazin-1-yl)-1-oxoisoindolin-2-yl)piperidine-2,6-dione] | < 1000 | < 1000 | – | – | – |
| > 90 | 10 to 50 | Nc1ncnc2c1c(-c1ccc(Oc3ccccc3)cc1)nn2[C@@H]1CCCN(C(=O)N2CCC(C3CCN(c4ccc5c(c4)CN(C4CCC(=O)NC4=O)C5=O)CC3)CC2)C1 (stereo partly drawn) [Compound 50, 3-(5-(1′-((R)-3-(4-amino-3-(4-phenoxyphenyl)-1H-pyrazolo[3,4-d]pyrimidin-1-yl)piperidine-1-carbonyl)-[4,4′-bipiperidin]-1-yl)-1-oxoisoindolin-2-yl)piperidine-2,6-dione] | 1000 to 10000 | 1000 to 10000 | – | – | – |
| > 90 | < 10 | Nc1ncnc2c1c(-c1ccc(Oc3ccccc3)cc1)nn2[C@@H]1CCCN(C(=O)N2CCC(N3CCC(c4ccc5c(c4)CN(C4CCC(=O)NC4=O)C5=O)CC3)CC2)C1 (stereo partly drawn) [Compound 54, 3-(5-(1′-((R)-3-(4-amino-3-(4-phenoxyphenyl)-1H-pyrazolo[3,4-d]pyrimidin-1-yl)piperidine-1-carbonyl)-[1,4′-bipiperidin]-4-yl)-1-oxoisoindolin-2-yl)piperidine-2,6-dione] | < 1000 | < 1000 | – | – | – |
| > 50 | > 50 | Nc1ncnc2c1c(-c1ccc(Oc3ccccc3)cc1)nn2[C@@H]1CCCN(C(=O)N2CCN(c3ccc4c(c3)CN(C3CCC(=O)NC3=O)C4=O)CC2)C1 (stereo partly drawn) [Compound 46, 3-(5-(4-((R)-3-(4-amino-3-(4-phenoxyphenyl)-1H-pyrazolo[3,4-d]pyrimidin-1-yl)piperidine-1-carbonyl)piperazin-1-yl)-1-oxoisoindolin-2-yl)piperidine-2,6-dione] | > 10000 | > 10000 | – | – | – |
| > 75 | 10 to 50 | Nc1ncnc2c1c(-c1ccc(Oc3ccccc3)cc1)nn2[C@@H]1CCCN(CC2CCN(CCCN3CCN(c4ccc5c(c4)C(=O)N(C4CCC(=O)NC4=O)C5=O)CC3)CC2)C1 (stereo partly drawn) [Compound 137, 5-(4-(3-(4-(((R)-3-(4-amino-3-(4-phenoxyphenyl)-1H-pyrazolo[3,4-d]pyrimidin-1-yl)piperidin-1-yl)methyl)piperidin-1-yl)propyl)piperazin-1-yl)-2-(2,6-dioxopiperidin-3-yl)isoindoline-1,3-dione] | > 10000 | > 10000 | – | – | – |
| > 75 | 10 to 50 | Nc1ncnc2c1c(-c1ccc(Oc3ccccc3)cc1)nn2[C@@H]1CCCN(C2CCN(C(=O)N3CCC(CCN4CCC(c5ccc6c(c5)C(=O)N(C5CCC(=O)NC5=O)C6=O)CC4)CC3)CC2)C1 (stereo partly drawn) [Compound 183, 5-(1-(2-(1-((R)-3-(4-amino-3-(4-phenoxyphenyl)-1H-pyrazolo[3,4-d]pyrimidin-1-yl)-[1,4′-bipiperidine]-1′-carbonyl)piperidin-4-yl)ethyl)piperidin-4-yl)-2-(2,6-dioxopiperidin-3-yl)isoindoline-1,3-dione] | > 10000 | 1000 to 10000 | – | – | – |
| > 90 | 10 to 50 | Nc1ncnc2c1c(-c1ccc(Oc3ccccc3)cc1)nn2[C@@H]1CCCN(CC2CCN(C(=O)N3CCC(CN4CCN(c5ccc6c(c5)CN(C5CCC(=O)NC5=O)C6=O)CC4)CC3)CC2)C1 (stereo partly drawn) [Compound 32, 3-(5-(4-((1-(4-(((R)-3-(4-amino-3-(4-phenoxyphenyl)-1H-pyrazolo[3,4-d]pyrimidin-1-yl)piperidin-1-yl)methyl)piperidine-1-carbonyl)piperidin-4-yl)methyl)piperazin-1-yl)-1-oxoisoindolin-2-yl)piperidine-2,6-dione] | 1000 to 10000 | 1000 to 10000 | – | – | – |

Further lines, the molecule ahead of its results:

| Molecule | Dmax (BTK) [%] | DC50 (BTK) [nM] | IC50 (JeKo-1 cells; Homo sapiens) [nM] | IC50 (Mino cells; Homo sapiens, MINO) [nM] | Dmax (BTK degradation) (BTK) | IC50 (JeKo-1 cells) [nM] | IC50 (Mino cells) [nM] |
| --- | --- | --- | --- | --- | --- | --- | --- |
| Nc1ncnc2c1c(-c1ccc(Oc3ccccc3)cc1)nn2[C@@H]1CCCN(C2CCN(CCN3CCC(c4ccc5c(c4)CN(C4CCC(=O)NC4=O)C5=O)CC3)CC2)C1 (stereo partly drawn) [Compound 150, 3-(5-(1-(2-((R)-3-(4-amino-3-(4-phenoxyphenyl)-1H-pyrazolo[3,4-d]pyrimidin-1-yl)-[1,4′-bipiperidin]-1′-yl)ethyl)piperidin-4-yl)-1-oxoisoindolin-2-yl)piperidine-2,6-dione] | > 75 | 10 to 50 | 1000 to 10000 | > 10000 | – | – | – |
| 3-(5-(4-(2-(2-(3-(4-amino-3-(4- phenoxyphenyl)-1H-pyrazolo[3,4- d]pyrimidin-1-yl)piperidin-1- yl)ethoxy)ethyl)piperidin-1-yl)-1- oxoisindolin-2-yl)piperidine-2,6- dione [Compound 24] | – | 10 to 50 | – | – | A (A >90%) | 1000 to 10000 | 1000 to 10000 |
| Nc1ncnc2c1c(-c1ccc(Oc3ccccc3)cc1)nn2C1CCN(C(=O)N2CCC(CCCN3CCC(c4ccc5c(c4)CN(C4CCC(=O)NC4=O)C5=O)CC3)CC2)CC1 (stereo not shown) [Compound 128, 3-(5-(1-(3-(1-(4-(4-amino-3-(4-phenoxyphenyl)-1H-pyrazolo[3,4-d]pyrimidin-1-yl)piperidine-1-carbonyl)piperidin-4-yl)propyl)piperidin-4-yl)-1-oxoisoindolin-2-yl)piperidine-2,6-dione] | > 90 | > 50 | > 10000 | 1000 to 10000 | – | – | – |
| Nc1ncnc2c1c(-c1ccc(Oc3ccccc3)cc1)nn2C1CCCN(CCOCCN2CCC(c3ccc4c(c3)C(=O)N(C3CCC(=O)NC3=O)C4=O)CC2)C1 (stereo not shown) [Compound 15, 5-(1-(2-(2-(3-(4-amino-3-(4-phenoxyphenyl)-1H-pyrazolo[3,4-d]pyrimidin-1-yl)piperidin-1-yl)ethoxy)ethyl)piperidin-4-yl)-2-(2,6-dioxopiperidin-3-yl)isoindoline-1,3-dione] | > 75 | 10 to 50 | 1000 to 10000 | 1000 to 10000 | – | – | – |
| Nc1ncnc2c1c(-c1ccc(Oc3ccccc3)cc1)nn2[C@@H]1CCCN(C2CCN(C(=O)N3CCN(CCCN4CCC(c5ccc6c(c5)C(=O)N(C5CCC(=O)NC5=O)C6=O)CC4)CC3)CC2)C1 (stereo partly drawn) [Compound 191, 5-(1-(3-(4-((R)-3-(4-amino-3-(4-phenoxyphenyl)-1H-pyrazolo[3,4-d]pyrimidin-1-yl)-[1,4′-bipiperidine]-1′-carbonyl)piperazin-1-yl)propyl)piperidin-4-yl)-2-(2,6-dioxopiperidin-3-yl)isoindoline-1,3-dione] | > 75 | 10 to 50 | > 10000 | > 10000 | – | – | – |
